Where “and” joins values, the source holds several entries; their conditions need not be identical. Equal values may be shown once.
CC(=O)SCCC(=O)Nc1c[nH]nc1Cl gave a melting point of 140 to 143 °C.
With CCN(C(=O)CCSC(C)=O)c1c[nH]nc1Cl the melting point was 98 to 99 °C.
For CC(=O)SCCC(=O)Nc1cn(-c2cccnc2)nc1Cl, the melting point was 163 to 166 °C and 168 to 171 °C.
In the case of CCN(C(=O)CCS)c1cn(-c2cccnc2)nc1Cl, the melting point is reported as 70 to 73 °C.
For C=CC(=O)Nc1c[nH]nc1Cl, the melting point was 182 °C (dec.).
C=CC(=O)N(CC)c1c[nH]nc1Cl showed a melting point of 156 to 160 °C.
For C=CC(=O)Nc1cn(-c2cccnc2)nc1Cl, the melting point was 148 to 153 °C.
